Data: the kinase profiling compilation of Christmann-Franck et al. (2016)

Assays:
Assay in all cases: KINOMEscan competition binding
Conditions in all cases: compound 10.0 µM
BMPR2 (human) = BMPR2 (human) (UniProt Q13873)
CDK13 (human) = CDK13 (human) (UniProt Q14004)
CHEK2 (human) = CHEK2 (human) (UniProt O96017)
CRK2 (P.falciparum) = CRK2 (P.falciparum) (UniProt P61075)
CSF1R (human) = CSF1R (human) (UniProt P07333)
CSNK1E (human) = CSNK1E (human) (UniProt P49674)
CSNK1G2 (human) = CSNK1G2 (human) (UniProt P78368)
DCLK2 (human) = DCLK2 (human) (UniProt Q8N568)
EPHB3 (human) = EPHB3 (human) (UniProt P54753)
EPHB6 (human) = EPHB6 (human) (UniProt O15197)
ERBB3 (human) = ERBB3 (human) (UniProt P21860)
[1] = tested on: FLT3 (human), P36888 [D835H]
GRK7 (human) = GRK7 (human) (UniProt Q8WTQ7)
HIPK2 (human) = HIPK2 (human) (UniProt Q9H2X6)
INSR (human) = INSR (human) (UniProt P06213)
IRAK3 (human) = IRAK3 (human) (UniProt Q9Y616)
LTK (human) = LTK (human) (UniProt P29376)
LYN (human) = LYN (human) (UniProt P07948)
MAP3K11 (human) = MAP3K11 (human) (UniProt Q16584)
MAP4K2 (human) = MAP4K2 (human) (UniProt Q12851)
MAPK3 (human) = MAPK3 (human) (UniProt P27361)
MAPK6 (human) = MAPK6 (human) (UniProt Q16659)
MARK2 (human) = MARK2 (human) (UniProt Q7KZI7)
MAST1 (human) = MAST1 (human) (UniProt Q9Y2H9)
MET (human) = MET (human) (UniProt P08581)
[2] = tested on: MET (human), P08581 [Y1235D]
NEK3 (human) = NEK3 (human) (UniProt P51956)
NEK4 (human) = NEK4 (human) (UniProt P51957)
NUAK2 (human) = NUAK2 (human) (UniProt Q9H093)
PIK3CG (human) = PIK3CG (human) (UniProt P48736)
PIM1 (human) = PIM1 (human) (UniProt P11309)
PIP5K1A (human) = PIP5K1A (human) (UniProt Q99755)
PKN1 (human) = PKN1 (human) (UniProt Q16512)
PRKCI (human) = PRKCI (human) (UniProt P41743)
PRPF4B (human) = PRPF4B (human) (UniProt Q13523)
RAF1 (human) = RAF1 (human) (UniProt P04049)
RIOK1 (human) = RIOK1 (human) (UniProt Q9BRS2)
SNRK (human) = SNRK (human) (UniProt Q9NRH2)
STK32A (human) = STK32A (human) (UniProt Q8WU08)
TAOK2 (human) = TAOK2 (human) (UniProt Q9UL54)

Chain of CSF1R (human) (P07333 whole entry, looked up): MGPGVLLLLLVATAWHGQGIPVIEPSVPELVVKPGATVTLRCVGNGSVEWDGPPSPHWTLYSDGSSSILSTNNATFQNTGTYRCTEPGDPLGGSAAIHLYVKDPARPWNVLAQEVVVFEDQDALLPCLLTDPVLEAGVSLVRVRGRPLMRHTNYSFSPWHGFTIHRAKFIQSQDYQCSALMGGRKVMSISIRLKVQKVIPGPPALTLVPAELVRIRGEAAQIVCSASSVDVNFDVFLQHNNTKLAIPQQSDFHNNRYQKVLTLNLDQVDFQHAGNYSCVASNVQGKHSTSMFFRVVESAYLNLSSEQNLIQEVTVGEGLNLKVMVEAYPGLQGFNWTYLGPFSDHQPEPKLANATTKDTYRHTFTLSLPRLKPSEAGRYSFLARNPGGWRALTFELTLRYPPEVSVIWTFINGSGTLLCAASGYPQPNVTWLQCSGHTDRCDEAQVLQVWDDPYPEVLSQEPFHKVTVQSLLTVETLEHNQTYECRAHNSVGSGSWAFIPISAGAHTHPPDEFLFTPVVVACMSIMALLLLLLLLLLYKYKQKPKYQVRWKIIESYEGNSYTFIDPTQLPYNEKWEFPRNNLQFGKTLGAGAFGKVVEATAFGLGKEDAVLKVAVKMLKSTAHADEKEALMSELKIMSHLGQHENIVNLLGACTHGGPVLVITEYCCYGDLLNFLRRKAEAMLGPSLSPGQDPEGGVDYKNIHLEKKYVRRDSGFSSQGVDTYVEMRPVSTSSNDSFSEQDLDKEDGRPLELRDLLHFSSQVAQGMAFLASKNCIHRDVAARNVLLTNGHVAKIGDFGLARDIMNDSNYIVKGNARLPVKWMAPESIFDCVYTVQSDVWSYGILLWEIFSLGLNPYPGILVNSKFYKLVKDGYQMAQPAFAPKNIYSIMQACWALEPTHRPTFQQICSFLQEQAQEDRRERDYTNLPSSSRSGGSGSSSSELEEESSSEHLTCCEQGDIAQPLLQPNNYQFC
Chain of MAPK6 (human) (Q16659 whole entry, looked up): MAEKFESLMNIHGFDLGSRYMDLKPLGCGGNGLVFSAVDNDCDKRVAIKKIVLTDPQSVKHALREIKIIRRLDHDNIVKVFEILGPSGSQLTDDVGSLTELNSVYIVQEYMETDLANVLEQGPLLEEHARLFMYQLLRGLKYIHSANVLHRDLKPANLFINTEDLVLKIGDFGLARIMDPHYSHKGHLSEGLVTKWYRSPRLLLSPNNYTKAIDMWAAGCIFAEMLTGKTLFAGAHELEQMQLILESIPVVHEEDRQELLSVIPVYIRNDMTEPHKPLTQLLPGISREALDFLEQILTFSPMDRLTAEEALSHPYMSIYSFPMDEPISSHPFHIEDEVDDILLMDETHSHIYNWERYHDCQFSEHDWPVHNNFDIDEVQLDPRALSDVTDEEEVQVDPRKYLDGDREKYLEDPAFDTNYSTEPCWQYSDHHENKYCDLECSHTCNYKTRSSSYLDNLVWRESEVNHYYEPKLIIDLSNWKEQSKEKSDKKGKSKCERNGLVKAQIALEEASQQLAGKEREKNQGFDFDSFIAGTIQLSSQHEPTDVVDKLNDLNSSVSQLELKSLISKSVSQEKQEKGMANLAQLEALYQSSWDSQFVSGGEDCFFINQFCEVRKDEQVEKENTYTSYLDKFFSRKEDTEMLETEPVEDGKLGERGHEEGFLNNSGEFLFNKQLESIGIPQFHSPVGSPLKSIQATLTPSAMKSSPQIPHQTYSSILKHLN
Chain of RIOK1 (human) (Q9BRS2 whole entry, looked up): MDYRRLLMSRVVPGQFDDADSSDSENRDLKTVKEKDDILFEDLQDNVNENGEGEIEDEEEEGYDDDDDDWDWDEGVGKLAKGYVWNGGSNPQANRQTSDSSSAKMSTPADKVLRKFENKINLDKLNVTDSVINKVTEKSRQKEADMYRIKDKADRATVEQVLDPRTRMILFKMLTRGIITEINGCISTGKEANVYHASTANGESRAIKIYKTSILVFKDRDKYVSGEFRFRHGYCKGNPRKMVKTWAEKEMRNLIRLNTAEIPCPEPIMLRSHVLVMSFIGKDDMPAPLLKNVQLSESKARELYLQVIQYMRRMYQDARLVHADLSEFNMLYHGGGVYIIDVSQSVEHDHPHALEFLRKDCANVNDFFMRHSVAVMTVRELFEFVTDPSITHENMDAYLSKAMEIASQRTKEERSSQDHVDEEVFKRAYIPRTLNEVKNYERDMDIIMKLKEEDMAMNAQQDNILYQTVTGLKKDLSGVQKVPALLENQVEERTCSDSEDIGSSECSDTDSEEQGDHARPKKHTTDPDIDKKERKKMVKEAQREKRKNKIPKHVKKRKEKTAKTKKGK
Chain of RAF1 (human) (P04049 whole entry, looked up): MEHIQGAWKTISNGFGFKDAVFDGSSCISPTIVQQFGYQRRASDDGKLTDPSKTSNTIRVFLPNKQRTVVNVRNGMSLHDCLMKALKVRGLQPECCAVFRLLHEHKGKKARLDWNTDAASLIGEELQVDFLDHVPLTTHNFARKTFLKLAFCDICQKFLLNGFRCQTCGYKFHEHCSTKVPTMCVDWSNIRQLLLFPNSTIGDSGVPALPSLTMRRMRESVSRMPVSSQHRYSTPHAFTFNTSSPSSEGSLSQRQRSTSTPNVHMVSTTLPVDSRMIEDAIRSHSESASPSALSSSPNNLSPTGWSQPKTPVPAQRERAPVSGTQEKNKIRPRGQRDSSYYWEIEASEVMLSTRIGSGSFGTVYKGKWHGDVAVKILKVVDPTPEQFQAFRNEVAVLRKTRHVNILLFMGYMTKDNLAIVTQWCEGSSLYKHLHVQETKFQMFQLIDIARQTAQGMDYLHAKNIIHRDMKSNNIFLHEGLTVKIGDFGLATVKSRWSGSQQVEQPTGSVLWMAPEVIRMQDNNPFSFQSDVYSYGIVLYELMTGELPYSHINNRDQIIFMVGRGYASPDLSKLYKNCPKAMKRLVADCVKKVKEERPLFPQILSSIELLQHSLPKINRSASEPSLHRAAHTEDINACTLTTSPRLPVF
Chain of PIP5K1A (human) (Q99755 whole entry, looked up): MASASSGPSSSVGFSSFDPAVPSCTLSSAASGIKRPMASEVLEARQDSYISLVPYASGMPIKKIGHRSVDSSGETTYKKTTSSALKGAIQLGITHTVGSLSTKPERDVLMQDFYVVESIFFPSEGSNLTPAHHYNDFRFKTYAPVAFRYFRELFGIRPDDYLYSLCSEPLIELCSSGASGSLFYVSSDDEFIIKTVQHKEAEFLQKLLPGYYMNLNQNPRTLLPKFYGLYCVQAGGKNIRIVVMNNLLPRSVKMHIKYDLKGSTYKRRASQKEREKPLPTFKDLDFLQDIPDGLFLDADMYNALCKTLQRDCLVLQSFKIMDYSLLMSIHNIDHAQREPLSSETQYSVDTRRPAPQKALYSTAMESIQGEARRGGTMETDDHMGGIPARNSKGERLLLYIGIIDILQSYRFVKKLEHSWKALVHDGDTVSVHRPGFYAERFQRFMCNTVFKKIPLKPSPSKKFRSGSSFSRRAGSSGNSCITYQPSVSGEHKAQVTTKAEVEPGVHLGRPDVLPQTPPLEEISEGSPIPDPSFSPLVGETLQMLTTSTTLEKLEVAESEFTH
Chain of NUAK2 (human) (Q9H093 whole entry, looked up): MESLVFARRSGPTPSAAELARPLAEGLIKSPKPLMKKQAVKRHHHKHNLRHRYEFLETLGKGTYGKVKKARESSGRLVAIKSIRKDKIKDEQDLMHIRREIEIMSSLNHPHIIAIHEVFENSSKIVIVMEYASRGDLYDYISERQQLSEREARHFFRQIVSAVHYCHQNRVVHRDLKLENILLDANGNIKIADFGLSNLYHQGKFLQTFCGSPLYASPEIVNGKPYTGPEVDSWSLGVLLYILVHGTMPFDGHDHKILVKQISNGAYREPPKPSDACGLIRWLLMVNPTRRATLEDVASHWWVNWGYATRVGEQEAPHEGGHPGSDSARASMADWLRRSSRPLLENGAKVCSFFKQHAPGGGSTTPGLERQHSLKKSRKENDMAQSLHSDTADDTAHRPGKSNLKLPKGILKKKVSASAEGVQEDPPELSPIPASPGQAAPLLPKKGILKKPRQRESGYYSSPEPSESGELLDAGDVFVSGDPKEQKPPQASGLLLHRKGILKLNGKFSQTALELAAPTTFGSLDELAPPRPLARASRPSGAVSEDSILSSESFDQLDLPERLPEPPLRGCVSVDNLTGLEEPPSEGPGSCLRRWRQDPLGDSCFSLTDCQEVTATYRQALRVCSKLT
Chain of STK32A (human) (Q8WU08 whole entry, looked up): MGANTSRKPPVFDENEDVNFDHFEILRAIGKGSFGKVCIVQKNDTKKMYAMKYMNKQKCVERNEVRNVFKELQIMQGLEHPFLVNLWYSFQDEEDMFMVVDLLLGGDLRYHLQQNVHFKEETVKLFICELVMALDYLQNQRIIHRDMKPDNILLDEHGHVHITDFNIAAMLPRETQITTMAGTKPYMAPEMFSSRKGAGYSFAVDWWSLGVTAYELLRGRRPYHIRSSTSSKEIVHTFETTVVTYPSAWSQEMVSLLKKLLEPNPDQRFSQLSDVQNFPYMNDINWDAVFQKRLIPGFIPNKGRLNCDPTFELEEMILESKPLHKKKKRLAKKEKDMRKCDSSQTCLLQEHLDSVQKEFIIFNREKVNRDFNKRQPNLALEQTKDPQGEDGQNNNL
Chain of GRK7 (human) (Q8WTQ7 whole entry, looked up): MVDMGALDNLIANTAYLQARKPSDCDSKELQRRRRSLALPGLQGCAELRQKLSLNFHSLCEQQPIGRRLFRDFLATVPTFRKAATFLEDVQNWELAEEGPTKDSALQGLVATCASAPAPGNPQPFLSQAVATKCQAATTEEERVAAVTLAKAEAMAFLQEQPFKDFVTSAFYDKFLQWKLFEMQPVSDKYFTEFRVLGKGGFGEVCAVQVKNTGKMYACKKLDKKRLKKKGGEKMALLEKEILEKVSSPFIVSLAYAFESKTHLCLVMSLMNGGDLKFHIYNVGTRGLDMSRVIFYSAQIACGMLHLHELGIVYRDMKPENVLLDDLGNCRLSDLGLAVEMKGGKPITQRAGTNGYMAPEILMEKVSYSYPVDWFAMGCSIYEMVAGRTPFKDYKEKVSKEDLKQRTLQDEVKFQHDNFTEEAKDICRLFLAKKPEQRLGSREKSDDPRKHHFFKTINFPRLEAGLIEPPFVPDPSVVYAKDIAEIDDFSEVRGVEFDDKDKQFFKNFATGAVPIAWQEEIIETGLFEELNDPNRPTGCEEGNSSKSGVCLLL

SMILES | kinase still bound, per cent of control (BMPR2 (human)) [%] | kinase still bound, per cent of control (CDK13 (human)) [%] | kinase still bound, per cent of control (CHEK2 (human)) [%] | kinase still bound, per cent of control (CRK2 (P.falciparum)) [%] | kinase still bound, per cent of control (CSF1R (human)) [%] | kinase still bound, per cent of control (CSNK1E (human)) [%] | kinase still bound, per cent of control (CSNK1G2 (human)) [%] | kinase still bound, per cent of control (DCLK2 (human)) [%] | kinase still bound, per cent of control (EPHB3 (human)) [%] | kinase still bound, per cent of control (EPHB6 (human)) [%] | kinase still bound, per cent of control (ERBB3 (human)) [%] | kinase still bound, per cent of control [1] [%] | kinase still bound, per cent of control (GRK7 (human)) [%] | kinase still bound, per cent of control (HIPK2 (human)) [%] | kinase still bound, per cent of control (INSR (human)) [%] | kinase still bound, per cent of control (IRAK3 (human)) [%] | kinase still bound, per cent of control (LTK (human)) [%] | kinase still bound, per cent of control (LYN (human)) [%] | kinase still bound, per cent of control (MAP3K11 (human)) [%] | kinase still bound, per cent of control (MAP4K2 (human)) [%] | other results
O=c1cc(N2CCOCC2)oc2c(-c3cccc4c3sc3ccccc34)cccc12 | 83 | 100 | 100 | 100 | 100 | 76 | 85 | 100 | 100 | 100 | 72 | 92 | 92 | 100 | 66 | 41 | 93 | 95 | 97 | 100 | kinase still bound, per cent of control (MAPK3 (human)): 100%; kinase still bound, per cent of control (MAPK6 (human)): 100%; kinase still bound, per cent of control (MARK2 (human)): 90%; kinase still bound, per cent of control (MAST1 (human)): 100%; kinase still bound, per cent of control (MET (human)): 63%; kinase still bound, per cent of control [2]: 59%; kinase still bound, per cent of control (NEK3 (human)): 100%; kinase still bound, per cent of control (NEK4 (human)): 100%; kinase still bound, per cent of control (NUAK2 (human)): 100%; kinase still bound, per cent of control (PIK3CG (human)): 1.3%; kinase still bound, per cent of control (PIM1 (human)): 62%; kinase still bound, per cent of control (PIP5K1A (human)): 100%; kinase still bound, per cent of control (PKN1 (human)): 100%; kinase still bound, per cent of control (PRKCI (human)): 100%; kinase still bound, per cent of control (PRPF4B (human)): 78%; kinase still bound, per cent of control (RAF1 (human)): 97%; kinase still bound, per cent of control (RIOK1 (human)): 100%; kinase still bound, per cent of control (SNRK (human)): 73%; kinase still bound, per cent of control (STK32A (human)): 100%; kinase still bound, per cent of control (TAOK2 (human)): 98%
CCN1CCN(C(=O)Cc2ccc(Nc3ncc(F)c(Nc4ccc(C(=O)Nc5ccccc5Cl)cc4)n3)cc2)CC1 | 25 | 100 | 70 | 100 | 6.5 | 100 | 58 | 88 | 78 | 15 | 45 | 0.6 | 71 | 5 | 78 | 1.8 | 32 | 46 | 4.6 | 51 | kinase still bound, per cent of control (MAPK3 (human)): 100%; kinase still bound, per cent of control (MAPK6 (human)): 21%; kinase still bound, per cent of control (MARK2 (human)): 50%; kinase still bound, per cent of control (MAST1 (human)): 100%; kinase still bound, per cent of control (MET (human)): 8.6%; kinase still bound, per cent of control [2]: 23%; kinase still bound, per cent of control (NEK3 (human)): 60%; kinase still bound, per cent of control (NEK4 (human)): 63%; kinase still bound, per cent of control (NUAK2 (human)): 23%; kinase still bound, per cent of control (PIK3CG (human)): 65%; kinase still bound, per cent of control (PIM1 (human)): 60%; kinase still bound, per cent of control (PIP5K1A (human)): 0%; kinase still bound, per cent of control (PKN1 (human)): 56%; kinase still bound, per cent of control (PRKCI (human)): 77%; kinase still bound, per cent of control (PRPF4B (human)): 18%; kinase still bound, per cent of control (RAF1 (human)): 81%; kinase still bound, per cent of control (RIOK1 (human)): 0%; kinase still bound, per cent of control (SNRK (human)): 89%; kinase still bound, per cent of control (STK32A (human)): 100%; kinase still bound, per cent of control (TAOK2 (human)): 56%
